Reference: US5652237A, “2-substituted-4H-3, 1-benzoxazin-4-ones and benzthiazin-4-ones as inhibitors of complement C1r protease for the treatment of inflammatory processes” (Warner-Lambert Company, priority 1995, dated 1997)

The compounds below were run against T1, human C1 r (Homo sapiens, UniProt P00736) (assay: Assay of C1r Enzyme Activity (Assay 1), thioester substrate z-Gly-Arg-S-Bzl with DTNB). Details: Table 1 and text, pH 7.4-7.5, read-out: Inhibition of Clr Assay 1 (IC50).
T1 construct: purchased Enzyme Research Labs (South Bend, Ind.)
T1 sequence (P00736 464-705 limits assumed): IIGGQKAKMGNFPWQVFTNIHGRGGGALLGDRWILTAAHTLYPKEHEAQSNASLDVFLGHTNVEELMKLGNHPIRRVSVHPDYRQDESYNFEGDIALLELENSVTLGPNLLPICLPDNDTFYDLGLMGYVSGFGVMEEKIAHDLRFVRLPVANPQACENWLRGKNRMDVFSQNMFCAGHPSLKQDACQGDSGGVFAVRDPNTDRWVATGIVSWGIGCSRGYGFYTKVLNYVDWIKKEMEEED
T1 sequence (P00736 18-463 partner limits assumed): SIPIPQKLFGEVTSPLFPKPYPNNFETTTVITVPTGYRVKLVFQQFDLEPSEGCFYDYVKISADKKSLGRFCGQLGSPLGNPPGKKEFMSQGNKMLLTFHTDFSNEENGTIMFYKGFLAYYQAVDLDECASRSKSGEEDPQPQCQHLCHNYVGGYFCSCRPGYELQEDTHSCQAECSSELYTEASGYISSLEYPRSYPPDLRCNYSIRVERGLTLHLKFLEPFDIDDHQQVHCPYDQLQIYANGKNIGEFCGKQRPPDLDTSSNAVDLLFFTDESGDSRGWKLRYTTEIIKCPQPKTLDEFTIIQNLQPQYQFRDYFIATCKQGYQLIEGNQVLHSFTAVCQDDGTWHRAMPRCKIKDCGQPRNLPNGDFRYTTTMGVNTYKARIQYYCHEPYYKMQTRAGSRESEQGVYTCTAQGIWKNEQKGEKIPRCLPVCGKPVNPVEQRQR
Type: biochemical
Description: Assay of C1 r Enzyme Activity Purified human C1 r was obtained commercially from Enzyme Research Labs (South Bend, Ind.). The enzyme is stored frozen at -70° C. at a stock concentration of about 1 mg/mL of protein until the enzyme is needed. […] The thioester substrate, z-Gly-Arg-S-Bzl, for C1 r assays (McRae, et al., 1981) is obtained commercially from Enzyme System Products (Livermore, Calif.). All other reagents were obtained from Sigma Chemical Co. (St. Louis, Mo.). The procedure for assaying the inhibition of C1 r enzyme activity is as follows. A 5 mM stock solution of z-Gly-Arg-S-Bzl is made in dimethylsulfoxide (DMSO) and stored at room temperature until needed. The stock substrate solution is diluted 3 parts stock substrate solution to 7 parts distilled water to make a 1.5 mM working substrate solution. The working substrate solution is made just before it is needed. A fresh solution of 20 μg/mL of C1 r enzyme is made in 10 mM Tris buffer, pH 7.4. The enzyme solution can be stored on ice for up to an hour. […] Compounds at concentrations ranging from 1 mM to 0.010 mM are dissolved in DMSO and a 10 μL aliquot of each concentration is deposited in a well of a 96-well microtiter plate. Fifty microliters of the working substrate solution and 50 μL of DTNB solution are then dispensed in the wells of the microtiter plate, followed by the immediate addition of 50 μL of the C1 r enzyme solution to start the assay. The assay produces a yellow color that is read in the kinetic mode using a Molecular Devices Thermomax microplate reader set to a wavelength of 405 nm. The assay background is followed by monitoring wells that contain substrate, buffer, and DTNB solutions but no enzyme. All assays are performed in triplicate at each inhibitor concentration tested. Values for each inhibitor concentration are reported as optical density (OD)/minute.

Row | Compound | IC50 [µM]
1 | O=c1oc(Nc2ccccc2Cl)nc2ccccc12 [Example 2, 2-(2-Chloro-phenylamino)-benzo[d][1,3]oxazin-4-one] | 6.5
2 | O=c1oc(Nc2ccccc2Br)nc2ccccc12 [Example 3, 2-(2-Bromo-phenylamino)-benzo[d][1,3]oxazin-4-one] | 5.1
3 | O=c1oc(Nc2ccccc2I)nc2ccccc12 [Example 4, 2-(2-Iodo-phenylamino)-benzo[d][1,3]oxazin-4-one] | 3.5
4 | O=c1oc(Nc2cccc(I)c2)nc2ccccc12 [Example 5, 2-(3-Iodo-phenylamino)-benzo[d][1,3]oxazin-4-one] | > 67
5 | O=c1oc(Nc2ccc(I)cc2)nc2ccccc12 [Example 6, 2-(4-Iodo-phenylamino)-benzo[d][1,3]oxazin-4-one] | > 67
6 | O=c1oc(Nc2c(Cl)cccc2Cl)nc2ccccc12 [Example 7, 2-(2,6-Dichloro-phenylamino)-benzo[d][1,3]oxazin-4-one] | 1.3
7 | CSc1ccccc1Nc1nc2ccccc2c(=O)o1 [Example 8, 2-(2-Methylsulfanyl-phenylamino)-benzo[d][1,3]oxazin-4-one] | > 66
8 | O=c1oc(Nc2ccccc2OC(F)(F)F)nc2ccccc12 [Example 9, 2-(2-Trifluoromethoxy-phenylamino)-benzo[d][1,3]oxazin-4-one] | 4
9 | CN(c1nc2ccccc2c(=O)o1)c1ccccc1I [Example 10, 2-[Methyl-(2-iodo-phenyl)-amino]benzo[d][1,3]oxazin-4-one] | 1.4
10 | CCN(c1nc2ccccc2c(=O)o1)c1ccccc1I [Example 11, 2-[Ethyl-(2-iodo-phenyl)-amino]-benzo[d][1,3]oxazin-4-one] | > 66
11 | CN(C(=O)c1ccccc1I)c1nc2ccccc2c(=O)o1 [Example 12, 2-Iodo-N-methyl-N-(4-oxo-4H-benzo[d][1,3]oxazin-2-yl)-benzamide] | 3.1
12 | CN(C(=O)c1c(Cl)cccc1Cl)c1nc2ccccc2c(=O)o1 [Example 13, 2,6-Dichloro-N-methyl-N-(4-oxo-4H-benzo[d][1,3]oxazin-2-yl)-benzamide] | 8
13 | CN(C(=O)c1ccccc1Br)c1nc2ccccc2c(=O)o1 [Example 14, 2-Bromo-N-methyl-N-(4-oxo-4H-benzo[d][1,3]oxazin-2-yl)-benzamide] | 4
14 | CSc1ccccc1C(=O)N(C)c1nc2ccccc2c(=O)o1 [Example 15, N-Methyl-2-methylsulfanyl-N-(4-oxo-4H-benzo[d][1,3]oxazin-2-yl)-benzamide] | 0.8
15 | CN(C(=O)c1ccccc1C(F)(F)F)c1nc2ccccc2c(=O)o1 [Example 16, N-Methyl-N-(4-oxo-4H-benzo[d][1,3]oxazin-2-yl)-2-trifluoromethyl-benzamide] | 1.5
16 | CN(C(=O)c1ccccc1)c1nc2ccccc2c(=O)o1 [Example 17, N-Methyl-N-(4-oxo-4H-benzo[d][1,3]oxazin-2-yl)benzamide] | 10.7
17 | CCN(C(=O)c1ccccc1I)c1nc2ccccc2c(=O)o1 [Example 18, N-Ethyl-2-iodo-N-(4-oxo-4H-benzo[d][1,3]oxazin-2-yl)-benzamide] | 8.3
18 | CN(C)c1ccc2c(=O)oc(Nc3ccccc3I)nc2c1 [Example 19, 7-Dimethylamino-2-(2-iodo-phenylamino)-benzo[d][1,3]oxazin-4-one] | > 66
19 | O=c1oc(Nc2ccccc2I)nc2cc3ccccc3cc12 [Example 20, 2-(2-Iodo-phenylamino)-naphtho[2,3-d][1,3]oxazin-4-one] | 1.4
20 | O=c1oc(Nc2ccccc2I)nc2cccc(Cl)c12 [Example 21, 5-Chloro-2-(2-iodo-phenylamino)-benzo[d][1,3]oxazin-4-one] | 14.5
21 | O=c1oc(Nc2ccccc2I)nc2ccc(Cl)cc12 [Example 22, 6-Chloro-2-(2-iodo-phenylamino)-benzo[d][1,3]oxazin-4-one] | 4

Row | Compound | IC50 [µM]
22 | O=c1oc(Nc2ccccc2I)nc2cc(Cl)ccc12 [Example 23, 7-Chloro-2-(2-iodo-phenylamino)-benzo[d][1,3]oxazin-4-one] | 0.7
23 | COc1ccc2nc(Nc3ccccc3I)oc(=O)c2c1 [Example 24, 2-(2-Iodo-phenylamino)-6-methoxy-benzo[d][1,3]oxazin-4-one] | 55
24 | COc1ccc2c(=O)oc(Nc3ccccc3I)nc2c1 [Example 25, 2-(2-Iodo-phenylamino)-7-methoxy-benzo[d][1,3]oxazin-4-one] | > 66
25 | Cc1cccc2nc(Nc3ccccc3I)oc(=O)c12 [Example 26, 2-(2-Iodo-phenylamino)-5-methyl-benzo[d][1,3]oxazin-4-one] | > 66
26 | Cc1ccc2nc(Nc3ccccc3I)oc(=O)c2c1 [Example 27, 2-(2-Iodo-phenylamino)-6-methyl-benzo[d][1,3]oxazin-4-one] | > 66
27 | Cc1ccc2c(=O)oc(Nc3ccccc3I)nc2c1 [Example 28, 2-(2-Iodo-phenylamino)-7-methyl-benzo[d][1,3]oxazin-4-one] | 0.8
28 | O=c1oc(Nc2ccccc2I)nc2cc(Cl)c(Cl)cc12 [Example 29, 6,7-Dichloro-2-(2-iodo-phenylamino)-benzo[d][1,3]oxazin-4-one] | 0.5
29 | O=c1oc(Nc2ccccc2I)nc2cc([N+](=O)[O-])ccc12 [Example 30, 2-(2-Iodo-phenylamino)-7-nitro-benzo[d][1,3]oxazin-4-one] | 0.75
30 | O=c1oc(Nc2ccccc2I)nc2cc(C(F)(F)F)ccc12 [Example 31, 2-(2-Iodo-phenylamino)-7-trifluoromethylbenzo[d][1,3]oxazin-4-one] | 0.4
31 | CN(C(=O)c1ccsc1)c1nc2ccccc2c(=O)o1 [Example 32, Thiophene-3-carboxylic acid methyl-(4-oxo-4H-benzo[d][1,3]oxazin-2-yl)-amide] | 6
32 | CN(C(=O)c1ccccc1F)c1nc2ccccc2c(=O)o1 [Example 33, 2-Fluoro-N-methyl-N-(4-oxo-4H-benzo[d][1,3]oxazin-2-yl)-benzamide] | 60
33 | CN(C(=O)c1ccccc1Cl)c1nc2ccccc2c(=O)o1 [Example 34, 2-Chloro-N-methyl-N-(4-oxo-4H-benzo[d][1,3]oxazin-2-yl)-benzamide] | 16
34 | COc1ccccc1C(=O)N(C)c1nc2ccccc2c(=O)o1 [Example 35, 2-Methoxy-N-methyl-N-(4-oxo-4H-benzo[d][1,3]oxazin-2-yl)-benzamide] | > 66
35 | Cc1ccccc1C(=O)N(C)c1nc2ccccc2c(=O)o1 [Example 36, 2,N-Dimethyl-N-(4-oxo-4H-benzo[d][1,3]oxazin-2-yl)-benzamide] | > 67
36 | CN(C(=O)c1cccc(I)c1)c1nc2ccccc2c(=O)o1 [Example 37, 3-Iodo-N-methyl-N-(4-oxo-4H-benzo[d][1,3]oxazin-2-yl)-benzamide] | 20
37 | CN(C(=O)c1ccc(I)cc1)c1nc2ccccc2c(=O)o1 [Example 38, 4-Iodo-N-methyl-N-(4-oxo-4H-benzo[d][1,3]oxazin-2-yl)-benzamide] | 33
38 | Cc1cccc2nc(N(C)C(=O)c3ccccc3I)oc(=O)c12 [Example 39, 2-Iodo-N-methyl-N-(5-methyl-4-oxo-4H-benzo[d][1,3]oxazin-2-yl)-benzamide] | > 66
39 | Cc1ccc2nc(N(C)C(=O)c3ccccc3I)oc(=O)c2c1 [Example 40, 2-Iodo-N-methyl-N-(6-methyl-4-oxo-4H-benzo[d][1,3]oxazin-2-yl)-benzamide] | 1.3
40 | CN(C(=O)c1ccccc1I)c1nc2ccc(Cl)cc2c(=O)o1 [Example 41, N-(6-Chloro-4-oxo-4H-benzo[d][1,3]oxazin-2-yl)-2-iodo-N-methyl-benzamide] | > 66
41 | CN(C(=O)c1ccccc1I)c1nc2cc(Cl)ccc2c(=O)o1 [Example 42, N-(7-Chloro-4-oxo-4H-benzo[d][1,3]oxazin-2-yl)-2-iodo-N-methyl-benzamide] | 18
